Data as given in the NIST ThermoML archive (doi:10.1021/je100598x).

Assay: cn = amount concentration of the nth substance listed, in mol/dm3
Details: 101 kPa, Liquid, Direct current cell with electrodes

CCCCCCCCCCCC[N+](CCCC)(CCCC)CCCC.[Br-] [dodecyltributylammonium bromide] + O
electrical conductivity [S/m]
Details	288.15 K	293.15 K	298.15 K	303.15 K	308.15 K	313.15 K	318.15 K
c1 = 0.000658	0.005218	0.00579	0.00649	0.007326	0.00785	0.008542	0.00923
c1 = 0.001299	0.009805	0.01101	0.01226	0.0138	0.01502	0.01631	0.0177
c1 = 0.001923	0.01419	0.01604	0.0179	0.0201	0.0218	0.0238	0.0258
c1 = 0.002532	0.01845	0.0208	0.0233	0.0262	0.0283	0.0309	0.0336
c1 = 0.003125	0.0226	0.0254	0.0287	0.0319	0.0346	0.0378	0.0412
c1 = 0.003704	0.0265	0.03	0.0335	0.0374	0.0407	0.0445	0.0484
c1 = 0.004268	0.0303	0.0341	0.0383	0.0427	0.0465	0.0509	0.0551
c1 = 0.004819	0.034	0.0384	0.0429	0.0476	0.0517	0.0566	0.0619
c1 = 0.005357	0.0377	0.0423	0.0472	0.052	0.0567	0.0619	0.0672
c1 = 0.005882	0.041	0.0459	0.0508	0.0554	0.0599	0.0658	0.0712
c1 = 0.006395	0.0441	0.0487	0.0532	0.0578	0.0629	0.069	0.0752
c1 = 0.006896	0.0466	0.0509	0.0556	0.0601	0.0658	0.072	0.0785
c1 = 0.007386	0.0485	0.0524	0.0575	0.0626	0.0678	0.0747	0.0817
c1 = 0.007865	0.05	0.0542	0.059	0.0647	0.0706	0.0773	0.0845
c1 = 0.008333	0.0513	0.0554	0.061	0.0666	0.0728	0.0798	0.0874
c1 = 0.008791	0.0523	0.0568	0.0622	0.0685	0.0749	0.0822	0.09
c1 = 0.009239	0.0537	0.0582	0.0641	0.0703	0.077	0.0845	0.0926
c1 = 0.009677	0.0548	0.0598	0.0652	0.0721	0.0789	0.0867	0.0952
c1 = 0.01011	0.0556	0.061	0.0671	0.0737	0.0804	0.0889	0.0976
c1 = 0.01053	0.0572	0.0623	0.0686	0.0757	0.0829	0.0913	0.1003
c1 = 0.01094	0.0583	0.0636	0.0701	0.0774	0.0849	0.0935	0.1028
c1 = 0.01134	0.0594	0.0649	0.0716	0.0791	0.0868	0.0957	0.105
c1 = 0.01174	0.0605	0.0661	0.073	0.0807	0.0887	0.0978	0.108
c1 = 0.01212	0.0615	0.0673	0.0744	0.0824	0.0905	0.0998	0.11
c1 = 0.0125	0.0626	0.0685	0.0758	0.084	0.0923	0.1019	0.1122
